Assays:
human FPR1 = target: T1, human FPR1 (Homo sapiens, UniProt P21462); assay: FPR1 cyclic adenosine monophosphate (cAMP) assay; assay type: cell-based; conditions: CHO cells overexpressing human FPR1; forskolin 10 μM; inhibition of cAMP production; HTRF; read-out: hFPR1 cAMP2 EC50
T1 sequence (P21462 1-350): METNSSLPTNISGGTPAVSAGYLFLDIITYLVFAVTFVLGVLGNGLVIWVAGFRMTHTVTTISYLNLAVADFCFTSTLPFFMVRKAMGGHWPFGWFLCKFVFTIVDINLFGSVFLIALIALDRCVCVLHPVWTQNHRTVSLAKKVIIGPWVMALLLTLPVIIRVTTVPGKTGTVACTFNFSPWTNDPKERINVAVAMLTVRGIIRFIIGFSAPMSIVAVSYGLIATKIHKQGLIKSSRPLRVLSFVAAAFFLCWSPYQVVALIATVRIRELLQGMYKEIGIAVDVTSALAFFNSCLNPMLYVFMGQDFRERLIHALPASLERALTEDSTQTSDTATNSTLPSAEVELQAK
Experimental: (§1) FPR2 and FPR1 Cyclic Adenosine Monophosphate (cAMP) Assays. A mixture of forskolin (5 μM final for FPR2 or 10 μM final for FPR1) and IBMX (200 μM final) were added to 384-well Proxiplates (Perkin-Elmer) pre-dotted with test compounds in DMSO (1% final) at final concentrations in the range of 0.020 nM to 100 μM. Chinese Hamster Ovary cells (CHO) overexpressing human FPR1 or human FPR2 receptors were cultured in F-12 (Ham's) medium supplemented with 10% qualified FBS, 250 μg/ml zeocin and 300 μg/ml hygromycin (Life Technologies). Reactions were initiated by adding 2,000 human FPR2 cells per well or 4,000 human FPR1 cells per well in Dulbecco's PBS (with calcium and magnesium) (Life Technologies) supplemented with 0.1% BSA (Perkin-Elmer). The reaction mixtures were incubated for 30 min at room temperature. The level of intracellular cAMP was determined using the HTRF HiRange cAMP assay reagent kit (Cisbio) according to manufacturer's instruction. Solutions of cryptate conjugated anti-cAMP and d2 flurorophore-labelled cAMP were made in a supplied lysis buffer separately. Upon completion of the reaction, the cells were lysed with equal volume of the d2-cAMP solution and anti-cAMP solution. After a 1-h room temperature incubation, time-resolved fluorescence intensity was measured using the Envision (Perkin-Elmer) at 400 nm excitation and dual emission at 590 nm and 665 nm. A calibration curve was constructed with an external cAMP standard at concentrations ranging from 1 μM to 0.1 μM by plotting the fluorescent intensity ratio from 665 nm emission to the intensity from the 590 nm emission against cAMP concentrations. The potency and activity of a compound to inhibit cAMP production was then determined by fitting to a 4-parametric logistic equation from a plot of cAMP level versus compound concentrations.

human FPR2 = target: T2, human FPR2 (Homo sapiens, UniProt P25090); assay: FPR2 cyclic adenosine monophosphate (cAMP) assay; assay type: cell-based; conditions: CHO cells overexpressing human FPR2; forskolin 5 μM; inhibition of cAMP production; HTRF; read-out: hFPR2 cAMP2 EC50
T2 sequence (P25090 1-351): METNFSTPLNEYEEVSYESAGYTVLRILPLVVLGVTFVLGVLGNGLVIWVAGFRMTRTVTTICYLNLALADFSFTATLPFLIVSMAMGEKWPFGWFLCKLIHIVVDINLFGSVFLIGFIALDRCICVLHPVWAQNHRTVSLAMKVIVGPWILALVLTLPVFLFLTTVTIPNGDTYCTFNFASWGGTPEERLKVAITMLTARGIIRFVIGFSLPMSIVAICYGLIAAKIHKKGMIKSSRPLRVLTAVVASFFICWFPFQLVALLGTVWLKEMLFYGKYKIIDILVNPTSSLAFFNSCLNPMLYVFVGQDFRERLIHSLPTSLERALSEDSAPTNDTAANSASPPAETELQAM
Experimental: as §1

EC50 (human FPR1) [nM]	EC50 (human FPR2) [nM]	Compound
110	9	COc1ccc(-n2cc(-c3nccs3)nc2NC(=O)c2ccc(OC(F)F)cc2)cc1 [Example 24, 4-(Difluoromethoxy)-N-[1-(4-methoxyphenyl)-4-(1,3-thiazol-2-yl)-1H-imidazol-2-yl]benzamide]
47	6	COc1ccc(-n2cc(-c3ccccc3F)nc2NC(=O)c2ccc(OC(F)F)cc2)cc1 [Example 25, 4-(Difluoromethoxy)-N-[4-(2-fluorophenyl)-1-(4-methoxyphenyl)-1H-imidazol-2-yl]benzamide]
400	72	COc1ccc(-n2cc(-c3cc4cc(Cl)ccc4o3)nc2NC(=O)c2ccc(OC(F)F)cc2)cc1 [Example 26, N-[4-(5-Chloro-1-benzofuran-2-yl)-1-(4-methoxyphenyl)-1H-imidazol-2-yl]-4-(difluoromethoxy)benzamide]
660	55	COc1ccc(-n2cc(C3CCCCC3)nc2NC(=O)c2ccc(OC(F)F)cc2)cc1 [Example 27, N-[4-Cyclohexyl-1-(4-methoxyphenyl)-1H-imidazol-2-yl]-4-(difluoromethoxy)benzamide]
1030	700	COc1ccc(-n2cc(-c3ccccn3)nc2NC(=O)c2ccc(OC(F)F)cc2)cc1 [Example 28, 4-(Difluoromethoxy)-N-[1-(4-methoxyphenyl)-4-(pyridin-2-yl)-1H-imidazol-2-yl]benzamide]
32	15	CCOC(=O)c1cc(-c2cn(-c3ccc(OC)cc3)c(NC(=O)c3ccc(OC(F)F)cc3)n2)on1 [Example 29, Ethyl 5-{2-[4-(difluoromethoxy)benzamido]-1-(4-methoxyphenyl)-1H-imidazol-4-yl}-1,2-oxazole-3-carboxylate]
100	9	CCOC(=O)c1cn(-c2ccc(OC)cc2)c(NC(=O)c2ccc(OC(F)F)cc2)n1 [Example 30, Ethyl 2-[4-(difluoromethoxy)benzamido]-1-(4-methoxyphenyl)-1H-imidazole-4-carboxylate]
> 10000	320	COc1ccc(-n2cc(C34CC5CC(CC(C5)C3)C4)nc2NC(=O)c2ccc(OC(F)F)cc2)cc1 [Example 31, N-[4-(Adamantan-1-yl)-1-(4-methoxyphenyl)-1H-imidazol-2-yl]-4-(difluoromethoxy)benzamide]
110	18	COc1ccc(-n2cc(C(C)(C)C)nc2NC(=O)c2ccc(OC(F)F)cc2)cc1 [Example 32, N-[4-Tert-butyl-1-(4-methoxyphenyl)-1H-imidazol-2-yl]-4-(difluoromethoxy)benzamide]
940	39	COc1cc(F)c(-n2cc(-c3ccccc3F)nc2NC(=O)c2ccc(OC(F)F)cc2)c(F)c1 [Example 33, N-[1-(2,6-Difluoro-4-methoxyphenyl)-4-(2-fluorophenyl)-1H-imidazol-2-yl]-4-(difluoromethoxy)benzamide]
120	16	COc1cc(F)c(-n2cc(-c3ccnc(Cl)c3)nc2NC(=O)c2ccc(OC(F)F)cc2)c(F)c1 [Example 34, N-[4-(2-Chloropyridin-4-yl)-1-(2,6-difluoro-4-methoxyphenyl)-1H-imidazol-2-yl]-4-(difluoromethoxy)benzamide]
1400	99	COc1cc(F)c(-n2cc(CC(C)C)nc2NC(=O)c2ccc(OC(F)F)cc2)c(F)c1 [Example 35, N-[1-(2,6-Difluoro-4-methoxyphenyl)-4-(2-methylpropyl)-1H-imidazol-2-yl]-4-(difluoromethoxy)benzamide]
320	31	COc1cc(F)c(-n2cc(-c3ccc(F)c(F)c3)nc2NC(=O)c2ccc(OC(F)F)cc2)c(F)c1 [Example 36, N-[1-(2,6-Difluoro-4-methoxyphenyl)-4-(3,4-difluorophenyl)-1H-imidazol-2-yl]-4-(difluoromethoxy)benzamide]
800	16	COc1cc(F)c(-n2cc(C3CC3)nc2NC(=O)c2ccc(OC(F)F)cc2)c(F)c1 [Example 37, N-[4-Cyclopropyl-1-(2,6-difluoro-4-methoxyphenyl)-1H-imidazol-2-yl]-4-(difluoromethoxy)benzamide]
620	15	CCOC(=O)c1cn(-c2c(F)cc(OC)cc2F)c(NC(=O)c2ccc(OC(F)F)cc2)n1 [Example 38, Ethyl 1-(2,6-difluoro-4-methoxyphenyl)-2-[4-(difluoromethoxy)benzamido]-1H-imidazole-4-carboxylate]
1000	21	CCc1cn(-c2c(F)cc(OC)cc2F)c(NC(=O)c2ccc(OC(F)F)cc2)n1 [Example 39, N-[1-(2,6-Difluoro-4-methoxyphenyl)-4-ehtyl-1H-imidazol-2-yl]-4-(difluoromethoxy)benzamide]
1000	11	COc1cc(F)c(-n2cc(-c3nccs3)nc2NC(=O)c2ccc(OC(F)F)cc2)c(F)c1 [Example 40, N-[1-(2,6-Difluoro-4-methoxyphenyl)-4-(1,3-thiazol-2-yl)-1H-imidazol-2-yl]-4-(difluoromethoxy)benzamide]
230	26	COc1cc(F)c(-n2cc(C3CCOCC3)nc2NC(=O)c2ccc(OC(F)F)cc2)c(F)c1 [Example 41, N-[1-(2,6-Difluoro-4-methoxyphenyl)-4-(oxan-4-yl)-1H-imdiazol-2-yl]-4-(difluoromethoxy)benzamide]
57	48	COc1ccc(-n2cc(C(F)(F)C(F)(F)F)nc2NC(=O)c2ccc(OC(F)F)cc2)cc1 [Example 42, 4-(Difluoromethoxy)-N-[1-(4-methoxyphenyl)-4-(1,1,2,2,2-pentafluoroethyl)-1H-imidazol-2-yl]benzamide]
40	10	COc1ccc(-n2cc(C(F)(F)F)nc2NC(=O)c2ccc(OC(F)F)cc2)cc1 [Example 43, 4-(Difluoromethoxy)-N-[1-(4-methoxyphenyl)-4-(trifluoromethyl)-1H-imidazol-2-yl]benzamide]
370	48	COc1cc(F)c(-n2cc(C(=O)NCc3cc[nH]n3)nc2NC(=O)c2ccc(OC(F)F)cc2)c(F)c1 [Example 44, 1-(2,6-Difluoro-4-methoxyphenyl)-2-[4-(difluoromethoxy)benzamido]-N-[(1H-pyrazol-3-yl)methyl]-1H-imidazole-4-carboxamide]
710	14	COc1ccc(-n2cc(C(=O)N3CCNCC3)nc2NC(=O)c2ccc(OC(F)F)cc2)cc1 [Example 45, 4-(Difluoromethoxy)-N-[1-(4-methoxyphenyl)-4-(piperazine-1-carbonyl)-1H-imidazol-2-yl]benzamide]
210	27	COc1ccc(-n2cc(C(=O)NCCCO)nc2NC(=O)c2ccc(OC(F)F)cc2)cc1 [Example 46, 2-[4-(Difluoromethoxy)benzamido]-N-(3-hydroxypropyl)-1-(4-methoxyphenyl)-1H-imidazole-4-carboxamide]
110	35	COc1cc(F)c(-n2cc(C(=O)NCc3cccnc3)nc2NC(=O)c2ccc(OC(F)F)cc2)c(F)c1 [Example 47, 1-(2,6-Difluoro-4-methoxyphenyl)-2-[4-(difluoromethoxy)benzamido]-N-[(pyridin-3-yl)methyl]-1H-imidazole-4-carboxamide]
600	110	COc1cc(F)c(-n2cc(C(=O)NCc3ccncc3)nc2NC(=O)c2ccc(OC(F)F)cc2)c(F)c1 [Example 48, 1-(2,6-Difluoro-4-methoxyphenyl)-2-[4-(difluoromethoxy)benzamido]-N-[(pyridin-4-yl)methyl]-1H-imidazole-4-carboxamide]

From patent US20230373930A1, “AMINOIMIDAZOLE FPR2 AGONISTS” (BRISTOL-MYERS SQUIBB COMPANY, priority 2020, published 2023)
